The target in one assay is T1, NVL (Homo sapiens, UniProt O15381).
T1 sequence (O15381 1-856): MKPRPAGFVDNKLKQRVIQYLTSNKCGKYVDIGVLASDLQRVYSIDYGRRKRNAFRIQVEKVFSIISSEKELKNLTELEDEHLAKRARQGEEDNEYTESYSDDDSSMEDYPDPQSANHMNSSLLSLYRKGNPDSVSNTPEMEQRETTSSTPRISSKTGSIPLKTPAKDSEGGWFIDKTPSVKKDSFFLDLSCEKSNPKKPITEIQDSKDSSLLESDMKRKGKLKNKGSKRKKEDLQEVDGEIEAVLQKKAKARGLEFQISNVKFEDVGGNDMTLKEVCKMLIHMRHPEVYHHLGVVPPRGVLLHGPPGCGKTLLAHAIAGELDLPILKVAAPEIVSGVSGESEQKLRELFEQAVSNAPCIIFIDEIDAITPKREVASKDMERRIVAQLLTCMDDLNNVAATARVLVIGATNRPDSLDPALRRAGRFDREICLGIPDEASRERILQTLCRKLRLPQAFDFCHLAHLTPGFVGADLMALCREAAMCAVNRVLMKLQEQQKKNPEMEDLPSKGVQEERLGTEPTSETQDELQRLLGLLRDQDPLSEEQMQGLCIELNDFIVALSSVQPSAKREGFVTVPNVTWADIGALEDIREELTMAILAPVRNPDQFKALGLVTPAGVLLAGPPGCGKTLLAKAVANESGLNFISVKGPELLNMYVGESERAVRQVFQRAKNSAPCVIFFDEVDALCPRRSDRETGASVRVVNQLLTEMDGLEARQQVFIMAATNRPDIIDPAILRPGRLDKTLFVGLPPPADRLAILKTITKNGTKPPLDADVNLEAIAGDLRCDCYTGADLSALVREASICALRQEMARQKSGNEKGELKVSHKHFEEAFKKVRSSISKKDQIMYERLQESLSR
Put plainly: Viability of NVL^AID/AID cells relying on ectopic human NVL (Ph-IAA). It counts as cell-based. On the set-up: expressed in transfected cells; host or cells: HCT116 NVL^AID/AID cells (viral infection; 'mock infected' control). The note with it: endogenous NVL degraded with Ph-IAA; read-out: IC50, cells expressing ectopic human NVL. An excerpt:
Next, we investigated whether inhibitors of NVL could inhibit the growth of cell line derived xenografts tumors in mice, and whether systemic inhibition of NVL leads to specific toxicities. […] To test the potency of MM927 against mouse NVL within the same cell type, we ectopically expressed either human or mouse NVL in NVL^AID/AID cells. Treatment with Ph-IAA degrades the endogenous protein so that the cells must rely solely on ectopically expressed NVL. In the mock infected cells, degrading NVL^AID/AID by the addition of Ph-IAA reduced cell viability as expected, and the viability was completely rescued by expression of either ectopic mouse or human NVL.

The subject of assay [1] is p53 and p21 in HCT116 NVL^WT tumors. Kind of assay: Pharmacodynamic study: p53 and p21 in HCT116 NVL^WT xenograft tumors. It counts as in vivo, mouse. The settings on record: 35 mg/kg IP. The protocol: Plasma exposure was dose-dependent up to 35 mg/kg (IP injection) reaching a maximum concentration at 17.86 μM. These levels exceed the anti-proliferative IC99 of MM927 in cells expressing either human or mouse NVL. In a subsequent pharmacodynamic (PD) study, we asked if we could assess on-target NVL inhibition via a subsequent p53 and/or p21 induction in tumor xenografts in mice treated with MM927. We implanted HCT116 NVL^WT and NVL^R403W cells subcutaneously on either flank of the mice and evaluated the levels of p53 and p21 in either tumor at various time points after IP administration of 35 mg/kg of MM927.
Pharmacodynamic study: Five million parental HCT116 cells or HCT116 NVL^R403W in a volume of 0.1 mL were implanted using a subcutaneous injection in the left and right side of four-to-eight-week-old male and female NSG mice, respectively. Tumor volumes were measured every 2 to 4 days with calipers. When the tumor diameter reached 0.5 cm in diameter, mice were dosed with 35 mg/kg MM927 or vehicle formulated as 10% DMSO/10% Kolliphor EL/10% Solutal/70% D5W and administered via the intraperitoneal route. At each time point (0, 3, 6, 12, 24 hours post dose), tumors were harvested and flash frozen for Western blot analysis for p53 and p21 as described.

The test system of assay [2] is MM017-resistant iHCT116 clones. Put plainly: Forward genetics: MM017-resistant iHCT116 clones (NVL mutations). The note with it: summary statement. The assay is classed as cell-based, human.
Source text: This system uses an engineered colorectal cancer HCT116 cell line (iHCT116) in which the addition of indole acetic acid (IAA) initiates a ubiquitin-mediated degradation of the DNA mismatch repair protein MLH1, thereby providing a mechanism to temporarily increase mutation rates. We applied this strategy to MM017, a dibenzothiazepinone identified in a high-throughput small molecule screen for HCT116 cytotoxicity. […] We exposed barcoded iHCT116 cells, that had previously been cultured either with (Mutagenesis-on) or without IAA (Mutagenesis-off), to increasingly lethal doses of MM017.
From whole exome sequencing, we identified variants that were acquired during IAA-induced mutagenesis with the hypothesis that genes related to resistance will be mutated in multiple clones.
Assay [3] deals with HCT116 control and p53 KO cells. Kind of assay: Cell death by loss in membrane permeability, HCT116 control and p53 KO cells. The assay is classed as cell-based, human. The note with it: five-day treatment.

pIC50: −log10 of the molar value.

On to `CC#CCN1C(=O)c2ccc(F)cc2Sc2cc(NC(=O)c3ccc4oc(=O)n(C)c4c3)ccc21` [MM927, N-(10-(But-2-yn-1-yl)-3-fluoro-11-oxo-10,11-dihydrodibenzo[b,f][1,4]thiazepin-7-yl)-3-methyl-2-oxo-2,3-dihydrobenzo[d]oxazole-5-carboxamide], for which, at NVL, the pIC50 (commonly the IC50 on a negative log10 scale, so that one unit is a factor of ten) was 7.29. Also, in assay [1], the “p53 and p21 time course in NVL^WT tumor” value was “remained elevated at 12 hours and decreased to basal levels by 24 hours”; the “p53 protein levels in NVL^WT tumor” value was “increased 3 hours after injection”.
Turning to `COCCN1C(=O)c2ccccc2Sc2cc(NC(=O)c3ccoc3)ccc21` [MM017], in assay [2], the “resistance caused by mutations in NVL2” value amounted to 30 fold. Also, the “cell death in p53 KO versus control cells” value in assay [3] was “substantially lower in p53 KO cells”.
